Consider six molecules from patent US20160052887A1, “PHARMACEUTICALLY ACCEPTABLE AMINE SALTS OF PITAVASTATIN” (DSM SINOCHEM PHARMACEUTICALS NETHERLANDS B.V., priority 2013, published 2016).

Where a name gives a salt, the structure may show the parent alone.

Data set [1] in a line: Basic toxicological evaluation.
The nature of data set [2]: Solubility of pitavastatin salts in buffers of pH 1.2 and pH 4.8. Particulars: for Appearance: appearance of the mixture at the reported pH and amount of salt added. The class given is physicochemical. An excerpt:
The pharmaceutically acceptable pitavastatin salts obtained above were subjected to solubility measurements. […] Amounts of added salt were increased as long as the resulting solution remained clear and the resulting pH value, as well as the total amount of salt added, are reported in the below Table.
The following observations were made. The solubility of pitavastatin calcium salt is very low, initially the compound floated on the buffer. In contrast, the solubility of the amine salts was much higher; in many cases solutions were still clear after more than 160 mg·g^−1 solution was added. For the amine salts, pH values increased to values as reported in the Table upon increasing addition of salt (indicating exhaustion of buffer capacity due to high salt solubility). […] Qualitatively, the speed of dissolution of the amine salts was much faster than the speed of dissolution of the calcium salt. The pitavastatin amine salts were not hygroscopic (qualitative determination).

For the molecule `NCc1ccco1` [1-furfurylamine], in data set [1], the Toxicological classification result is on record as “very safe”.

In the case of `O=C(O)C[C@H](O)C[C@H](O)/C=C/c1c(C2CC2)nc2ccccc2c1-c1ccc(F)cc1` [Calcium salt, pitavastatin-Ca, reference compound], the Appearance entry in data set [2] is “Suspension”. Further, the “Solubility (observation in words)” value in data set [2] (aqueous buffers) was “very low”.

On to `O=C(O)C[C@H](O)C[C@H](O)/C=C/c1c(C2CC2)nc2ccccc2c1-c1ccc(F)cc1` [Choline salt, pitavastatin-choline salt], for which the Appearance result in data set [2] is “Clear”.

For `NCc1ccco1.O=C(O)C[C@H](O)C[C@H](O)/C=C/c1c(C2CC2)nc2ccccc2c1-c1ccc(F)cc1` [Furfurylamine salt, pitavastatin-furfuryl amine salt], the Appearance entry in data set [2] was “Suspension”.

`O=C(O)C[C@H](O)C[C@H](O)/C=C/c1c(C2CC2)nc2ccccc2c1-c1ccc(F)cc1` [L-Lysine salt, pitavastatin-lysine salt]: in data set [2] (starting with a buffer of pH 4.8 (entry at pH 4.5)), the “Solubility (observation in words)” value is listed as “very low”.

Turning to `O=C(O)C[C@H](O)C[C@H](O)/C=C/c1c(C2CC2)nc2ccccc2c1-c1ccc(F)cc1` [Tris(hydroxymethyl)-aminomethane salt, pitavastatin-tris(hydroxymethyl)aminomethane salt], the Appearance result in data set [2] was “Clear”.
